Test results as given in US12195439B1, “C1-substituted isopropylamine fused heterocyclic mescaline derivatives” (Enveric Biosciences Canada Inc., priority 2022, dated 2025).
Read-outs that look alike come from different tables or passages of the source.

Tests used:
[1] = biological target: T1, serotonin transporter (SERT) (Homo sapiens, UniProt P31645); assay: biochemical; format: binding; conditions: for inhibition at 10 µM: read-out: SERT, percent of control-specific binding
T1 construct: host or cells: CHO cells (membrane preparation)

MT1 receptor = biological target: T2, MT1 receptor (Homo sapiens, UniProt P48039); assay: Eurofins Cerep competition binding assay at MT1 receptor; conditions: for MT1, percent of control-specific binding: 10 μM test ligand, [125I]2-iodomelatonin, recombinant receptor from CHO cells; for inhibition at 10 µM: read-out: MT1, percent of control-specific binding, 10 μM test ligand, [125I]2-iodomelatonin, recombinant receptor from CHO cells
T2 construct: host or cells: CHO cells (membrane preparation)

5-HT1A receptor [2] = biological target: T3, 5-HT1A receptor (Homo sapiens, UniProt P08908); assay: Eurofins Cerep competition binding assay at 5-HT1A receptor; conditions: 10 μM test ligand, [3H]8-OH-DPAT, recombinant receptor from HEK-293 cells; for inhibition at 10 µM: read-out: HT1A, percent of control-specific binding
T3 construct: purchased Perkin Elmer 6110501400UA
T3 sequence (P08908 1-422): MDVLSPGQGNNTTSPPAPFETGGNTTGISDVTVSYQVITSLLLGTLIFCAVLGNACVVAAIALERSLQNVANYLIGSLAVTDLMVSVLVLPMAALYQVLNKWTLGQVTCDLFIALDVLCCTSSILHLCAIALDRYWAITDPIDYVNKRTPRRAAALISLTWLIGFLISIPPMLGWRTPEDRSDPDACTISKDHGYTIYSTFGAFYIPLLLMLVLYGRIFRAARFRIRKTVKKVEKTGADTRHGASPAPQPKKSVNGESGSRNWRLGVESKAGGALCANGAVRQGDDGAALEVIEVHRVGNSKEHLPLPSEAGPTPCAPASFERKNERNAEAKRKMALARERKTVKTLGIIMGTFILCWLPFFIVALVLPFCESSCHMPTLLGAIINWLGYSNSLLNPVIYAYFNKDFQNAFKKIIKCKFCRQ

5-HT2C receptor = biological target: T4, 5-HT2C receptor (Homo sapiens, UniProt P28335); assay: Eurofins Cerep competition binding assay at 5-HT2C receptor; conditions: 10 μM test ligand, [125I](±)DOI, recombinant receptor from HEK-293 cells; for inhibition at 10 µM: read-out: HT2C, percent of control-specific binding
T4 construct: host or cells: HEK-293 cells (membrane preparation)
T4 sequence (P28335 33-458): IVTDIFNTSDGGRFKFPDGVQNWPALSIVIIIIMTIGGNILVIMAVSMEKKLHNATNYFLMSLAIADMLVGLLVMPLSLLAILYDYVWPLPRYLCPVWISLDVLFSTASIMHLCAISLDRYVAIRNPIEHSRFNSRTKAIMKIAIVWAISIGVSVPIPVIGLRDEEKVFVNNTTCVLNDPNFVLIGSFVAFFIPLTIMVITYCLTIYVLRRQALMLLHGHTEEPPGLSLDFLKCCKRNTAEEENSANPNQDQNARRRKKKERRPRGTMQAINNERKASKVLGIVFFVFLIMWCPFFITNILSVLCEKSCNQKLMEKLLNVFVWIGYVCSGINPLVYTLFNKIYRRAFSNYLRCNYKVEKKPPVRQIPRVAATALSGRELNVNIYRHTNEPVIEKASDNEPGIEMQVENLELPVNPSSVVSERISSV

5-HT2A receptor = biological target: T5, 5-HT2A receptor (Homo sapiens, UniProt P28223); assay: biochemical; format: binding; conditions: competition with 1 nM [3H]ketanserin, membranes containing 5-HT2A, SPA
T5 construct: purchased PerkinElmer ES-313-M400UA

5-HT7 receptor = biological target: T6, 5-HT7 receptor (Homo sapiens, UniProt P34969); assay: Eurofins Cerep competition binding assay at 5-HT7 receptor; conditions: 10 μM test ligand, [3H]LSD, recombinant receptor from HEK-293 cells; for inhibition at 10 µM: read-out: HT7, percent of control-specific binding
T6 construct: host or cells: HEK-293 cells (membrane preparation)

5-HT1A receptor [3] = biological target: T3, 5-HT1A receptor; assay: 5-HT1A receptor radioligand competition assay (SPA); format: binding; conditions: 5-HT1A, Ki, competition with 0.5 nM [3H]8-hydroxy-DPAT, membranes containing 5-HT1A
alpha2A receptor = biological target: T7, alpha2A receptor (Homo sapiens, UniProt P08913); assay: Eurofins Cerep competition binding assay at alpha2A receptor; conditions: 10 μM test ligand, [3H]RX 821002, recombinant receptor from CHO cells; for inhibition at 10 µM: read-out: α-2A, percent of control-specific binding
T7 construct: host or cells: CHO cells (membrane preparation)
T7 sequence (P08913 1-465): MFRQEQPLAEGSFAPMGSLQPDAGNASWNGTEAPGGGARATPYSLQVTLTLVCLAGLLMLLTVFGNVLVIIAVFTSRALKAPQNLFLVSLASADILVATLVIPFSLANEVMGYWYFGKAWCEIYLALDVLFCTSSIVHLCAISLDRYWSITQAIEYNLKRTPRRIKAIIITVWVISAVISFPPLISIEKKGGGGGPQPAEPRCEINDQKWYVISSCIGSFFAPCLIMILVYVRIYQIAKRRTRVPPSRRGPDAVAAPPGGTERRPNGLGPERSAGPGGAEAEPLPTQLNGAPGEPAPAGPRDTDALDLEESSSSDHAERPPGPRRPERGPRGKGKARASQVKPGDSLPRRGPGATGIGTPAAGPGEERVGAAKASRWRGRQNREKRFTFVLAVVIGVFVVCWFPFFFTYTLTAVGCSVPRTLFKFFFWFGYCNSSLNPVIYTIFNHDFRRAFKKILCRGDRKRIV

[4] = biological target: T8, norepinephrine transporter (NET) (Homo sapiens, UniProt P23975); assay: Eurofins Cerep competition binding assay at norepinephrine transporter; conditions: for inhibition at 10 µM: read-out: NET, percent of control-specific binding, 10 μM test ligand, [3H]nisoxetine, recombinant transporter from CHO cells
T8 construct: host or cells: CHO cells (membrane preparation)

5-HT2B receptor = biological target: T9, 5-HT2B receptor (Homo sapiens, UniProt P41595); assay: Eurofins Cerep competition binding assay at 5-HT2B receptor; conditions: 10 μM test ligand, [3H]mesulergine, recombinant receptor from CHO cells; for inhibition at 10 µM: read-out: HT2B, percent of control-specific binding
T9 construct: host or cells: CHO cells (membrane preparation)

[5] = biological target: T10, dopamine transporter (DAT) (Homo sapiens, UniProt Q01959); assay: Eurofins Cerep competition binding assay at dopamine transporter; conditions: for inhibition at 10 µM: read-out: DAT, percent of control-specific binding, 10 μM test ligand, [3H]BTCP, recombinant transporter from CHO cells
T10 construct: host or cells: CHO cells (membrane preparation)

5-HT1A receptor [6] = biological target: T3, 5-HT1A receptor; assay: 5-HT1A receptor functional cellular response (cAMP) assay; format: cell-based

T2 sequence (P48039 whole entry): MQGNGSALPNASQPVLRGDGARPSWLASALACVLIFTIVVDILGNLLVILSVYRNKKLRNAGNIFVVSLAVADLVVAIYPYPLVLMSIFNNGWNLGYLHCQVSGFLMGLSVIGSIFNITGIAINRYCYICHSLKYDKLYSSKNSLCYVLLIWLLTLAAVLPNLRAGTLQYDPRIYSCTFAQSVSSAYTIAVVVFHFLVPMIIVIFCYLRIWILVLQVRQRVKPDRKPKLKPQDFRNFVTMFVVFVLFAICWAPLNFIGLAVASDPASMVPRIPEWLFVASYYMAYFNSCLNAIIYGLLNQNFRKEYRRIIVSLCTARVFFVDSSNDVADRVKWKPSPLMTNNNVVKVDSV
T6 sequence (P34969 whole entry): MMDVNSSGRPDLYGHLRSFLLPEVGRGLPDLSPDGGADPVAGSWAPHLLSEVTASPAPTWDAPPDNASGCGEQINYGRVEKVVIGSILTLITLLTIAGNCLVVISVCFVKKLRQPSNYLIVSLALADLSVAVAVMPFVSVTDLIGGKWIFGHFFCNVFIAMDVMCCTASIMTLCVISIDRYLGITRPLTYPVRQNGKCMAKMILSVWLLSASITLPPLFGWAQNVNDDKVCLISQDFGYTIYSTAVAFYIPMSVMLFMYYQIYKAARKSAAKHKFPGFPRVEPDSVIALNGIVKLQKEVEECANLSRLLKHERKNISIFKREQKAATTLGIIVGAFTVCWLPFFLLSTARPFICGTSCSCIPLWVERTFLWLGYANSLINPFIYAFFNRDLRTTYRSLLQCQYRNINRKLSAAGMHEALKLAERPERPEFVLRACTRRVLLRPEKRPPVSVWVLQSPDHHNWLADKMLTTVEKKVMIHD
T8 sequence (P23975 whole entry): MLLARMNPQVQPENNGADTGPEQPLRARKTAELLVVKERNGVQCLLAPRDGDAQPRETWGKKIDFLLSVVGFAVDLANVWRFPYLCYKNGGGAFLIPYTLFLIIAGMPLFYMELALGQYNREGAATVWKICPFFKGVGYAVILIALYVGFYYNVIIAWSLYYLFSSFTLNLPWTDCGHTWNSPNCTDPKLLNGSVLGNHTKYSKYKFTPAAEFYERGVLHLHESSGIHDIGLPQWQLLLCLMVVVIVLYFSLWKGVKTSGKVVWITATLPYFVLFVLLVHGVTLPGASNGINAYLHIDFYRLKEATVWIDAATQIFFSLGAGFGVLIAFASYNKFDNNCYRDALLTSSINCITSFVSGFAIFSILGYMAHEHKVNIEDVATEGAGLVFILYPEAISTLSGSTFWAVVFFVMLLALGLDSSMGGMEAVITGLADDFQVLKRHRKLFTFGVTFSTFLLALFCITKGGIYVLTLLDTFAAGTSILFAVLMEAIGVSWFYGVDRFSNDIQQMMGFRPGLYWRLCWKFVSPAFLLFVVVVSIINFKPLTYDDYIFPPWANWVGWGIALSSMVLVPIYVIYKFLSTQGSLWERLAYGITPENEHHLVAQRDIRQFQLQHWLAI
T1 sequence (P31645 whole entry): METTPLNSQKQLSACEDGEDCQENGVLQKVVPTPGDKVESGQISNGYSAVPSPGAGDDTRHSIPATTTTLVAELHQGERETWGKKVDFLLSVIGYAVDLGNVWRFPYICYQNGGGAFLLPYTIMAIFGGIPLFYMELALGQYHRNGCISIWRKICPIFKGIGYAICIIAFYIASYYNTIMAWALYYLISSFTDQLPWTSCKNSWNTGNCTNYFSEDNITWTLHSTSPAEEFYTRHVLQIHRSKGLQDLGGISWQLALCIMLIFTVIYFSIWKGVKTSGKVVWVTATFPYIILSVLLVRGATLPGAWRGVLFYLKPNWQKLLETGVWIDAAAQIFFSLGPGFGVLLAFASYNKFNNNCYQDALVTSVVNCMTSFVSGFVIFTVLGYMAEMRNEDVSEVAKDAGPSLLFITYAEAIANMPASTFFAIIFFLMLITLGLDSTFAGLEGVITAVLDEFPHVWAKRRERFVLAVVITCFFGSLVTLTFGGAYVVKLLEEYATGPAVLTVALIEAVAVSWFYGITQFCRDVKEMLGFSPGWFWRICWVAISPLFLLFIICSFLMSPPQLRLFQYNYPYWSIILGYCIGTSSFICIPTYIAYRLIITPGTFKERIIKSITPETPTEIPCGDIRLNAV
T10 sequence (Q01959 whole entry): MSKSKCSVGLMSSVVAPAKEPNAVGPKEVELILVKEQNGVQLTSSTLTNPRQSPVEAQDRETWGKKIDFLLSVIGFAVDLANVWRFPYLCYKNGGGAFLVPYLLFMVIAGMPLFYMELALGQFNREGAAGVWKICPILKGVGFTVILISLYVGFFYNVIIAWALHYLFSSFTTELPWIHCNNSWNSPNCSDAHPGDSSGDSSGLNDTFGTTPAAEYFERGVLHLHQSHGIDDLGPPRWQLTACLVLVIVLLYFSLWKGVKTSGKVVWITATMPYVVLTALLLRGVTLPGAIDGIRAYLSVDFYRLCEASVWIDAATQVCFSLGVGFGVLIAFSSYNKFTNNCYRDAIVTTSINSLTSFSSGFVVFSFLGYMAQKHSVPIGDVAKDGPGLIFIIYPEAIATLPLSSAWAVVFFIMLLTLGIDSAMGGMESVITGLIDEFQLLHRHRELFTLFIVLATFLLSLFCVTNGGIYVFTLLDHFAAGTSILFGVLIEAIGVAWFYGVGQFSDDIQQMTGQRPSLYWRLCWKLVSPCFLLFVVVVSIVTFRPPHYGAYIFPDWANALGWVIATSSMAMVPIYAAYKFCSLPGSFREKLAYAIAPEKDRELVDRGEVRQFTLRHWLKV
T9 sequence (P41595 whole entry): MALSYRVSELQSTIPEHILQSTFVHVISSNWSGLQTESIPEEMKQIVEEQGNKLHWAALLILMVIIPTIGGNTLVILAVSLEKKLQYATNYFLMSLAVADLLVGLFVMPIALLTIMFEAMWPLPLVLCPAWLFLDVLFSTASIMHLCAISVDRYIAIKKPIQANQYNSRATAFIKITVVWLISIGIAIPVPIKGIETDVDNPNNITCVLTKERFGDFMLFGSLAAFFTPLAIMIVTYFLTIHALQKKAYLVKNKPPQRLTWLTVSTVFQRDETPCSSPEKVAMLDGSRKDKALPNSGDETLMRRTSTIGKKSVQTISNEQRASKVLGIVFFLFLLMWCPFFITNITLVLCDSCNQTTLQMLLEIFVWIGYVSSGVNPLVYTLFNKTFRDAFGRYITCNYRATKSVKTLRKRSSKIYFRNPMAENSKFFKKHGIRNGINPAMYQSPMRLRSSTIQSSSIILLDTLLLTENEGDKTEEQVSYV
T5 sequence (P28223 whole entry): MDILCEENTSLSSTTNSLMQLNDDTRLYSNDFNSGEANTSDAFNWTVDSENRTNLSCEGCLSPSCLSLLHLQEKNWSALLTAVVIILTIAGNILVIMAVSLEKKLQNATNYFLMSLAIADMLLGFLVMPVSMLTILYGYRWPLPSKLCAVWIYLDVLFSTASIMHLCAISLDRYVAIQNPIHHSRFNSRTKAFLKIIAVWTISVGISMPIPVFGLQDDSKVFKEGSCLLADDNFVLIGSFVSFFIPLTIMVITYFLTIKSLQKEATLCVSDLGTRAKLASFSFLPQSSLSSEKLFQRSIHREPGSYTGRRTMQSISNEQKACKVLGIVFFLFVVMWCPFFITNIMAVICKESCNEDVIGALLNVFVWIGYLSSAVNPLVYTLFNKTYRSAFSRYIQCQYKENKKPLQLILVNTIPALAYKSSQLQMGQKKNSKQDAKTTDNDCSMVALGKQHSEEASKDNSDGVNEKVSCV

SMILES	inhibition at 10 µM [1] [%]	Ki (5-HT2A receptor) [µM]	Ki (5-HT1A receptor [3]) [µM]	inhibition at 10 µM [4] [%]	inhibition at 10 µM [5] [%]	inhibition at 10 µM (MT1 receptor) [%]	inhibition at 10 µM (5-HT1A receptor [2]) [%]	inhibition at 10 µM (5-HT2C receptor) [%]	inhibition at 10 µM (5-HT7 receptor) [%]	inhibition at 10 µM (alpha2A receptor) [%]	inhibition at 10 µM (5-HT2B receptor) [%]	EC50 (5-HT1A receptor [6]) [µM]	further results
CC(C(O)c1ccc2c(c1)OCO2)N(C)Cc1ccccc1 (single isomer, unassigned) [B(III) as diast. (iii)]	58	44	110	42	75	–	–	–	–	–	–	–	MT1, percent of control-specific binding (MT1 receptor; 10 µM): 0%; HT1A, percent of control-specific binding (5-HT1A receptor [2]; 10 µM): 0%; HT2C, percent of control-specific binding (5-HT2C receptor; 10 µM): 5%; HT7, percent of control-specific binding (5-HT7 receptor; 10 µM): 10%; α-2A, percent of control-specific binding (alpha2A receptor; 10 µM): 7%; HT2B, percent of control-specific binding (5-HT2B receptor; 10 µM): 3%
CC(C(F)c1ccc2c(c1)OCO2)N(C)Cc1ccccc1 (single isomer, unassigned) [D(III) as diast. (vii)]	35	–	11.3	50	69	23	36	36	60	86	29	156	–
CNC(C)Cc1ccc2c(c1)OCO2 (centres unmarked) [MDMA]	–	–	–	–	–	–	–	–	–	–	–	–	SERT, percent of control-specific binding ([1]; 10 µM): 46%; MT1, percent of control-specific binding (MT1 receptor): 1%; HT1A, percent of control-specific binding (5-HT1A receptor [2]): 68%; HT2C, percent of control-specific binding (5-HT2C receptor): 96%; HT7, percent of control-specific binding (5-HT7 receptor): 58%; α-2A, percent of control-specific binding (alpha2A receptor): 27%; NET, percent of control-specific binding ([4]; 10 μM test ligand, [3H]nisoxetine, recombinant transporter from CHO cells): 3%; HT2B, percent of control-specific binding (5-HT2B receptor): 85%; DAT, percent of control-specific binding ([5]; 10 μM test ligand, [3H]BTCP, recombinant transporter from CHO cells): 28%; EC50 (5-HT1A receptor [6]; CHO-K1/5-HT1A/Gα15 cells stimulated with 4 μM forskolin, reduction of intracellular cAMP, read-out: 5-HT1A, EC50): > 1000 µM
N[C@@H](Cc1c[nH]c2ccccc12)C(=O)O [tryptophan]	1	> 1000	> 1000	1	1	-2	6	25	11	-4	0	–	–
C[C@@H]([C@H](F)c1ccc2c(c1)OCO2)N(C)Cc1ccccc1 [D(III) as diast. (vii)]	–	–	11.3	–	–	–	–	–	–	–	–	156	–
COc1cc(CCN)cc(OC)c1OC [mescaline, 3,4,5 trimethoxyphenethylamine]	-6	–	8.5	-9	-1	6	65	95	38	57	80	> 1000	–
CNC(C)C(F)c1ccc2c(c1)OCO2 (single isomer, unassigned) [D(II) as diast. (vi)]	–	–	6	–	–	–	–	–	–	–	–	> 1000	–
CC(C(=O)c1ccc2c(c1)OCO2)N1CCCC1 (racemic) [A(I)]	25	131	2	59	95	5	73	45	3	24	19	–	–
CCCOc1c(OC)cc(CCN)cc1OC [proscaline]	23	82	9.4	-9	-2	3	71	97	5	40	85	–	–
CC(C(=O)c1ccc2c(c1)OCO2)N(C)Cc1ccccc1 (racemic) [A(III)]	5	53	49	38	74	77	4	7	0	42	32	> 1000	–
